Laboratory results reported in US8278455B2, “5- or 6-substituted benzimidazole derivatives as inhibitors of respiratory syncytial virus replication” (Janssen Pharmaceutica N.V., priority 2003, dated 2012).

What follows are molecules tested on Respiratory Syncytial Virus (assay: In vitro screening for activity against Respiratory Syncytial Virus (MTT tetrazolium colorimetric assay, HeLa cells)). Conditions: human respiratory syncytial virus, 168 h; protection against RSV cytopathology in HeLa cells, 7 days after infection; pEC50 = −log of EC50 in molar units.
Assay type: cell-based
From the text: The percent protection against cytopathology caused by viruses (antiviral activity or EC50) achieved by tested compounds and their cytotoxicity (CC50) are both calculated from dose-response curves. The selectivity of the antiviral effect is represented by the selectivity index (SI), calculated by dividing the CC50 (cytotoxic dose for 50% of the cells) by the EC50 (antiviral activity for 50% of the cells). The tables in the above experimental part list the category to which each of the prepared compounds belong. Compounds belonging to activity category “A” have an pEC50 (−log of EC50 when expressed in molar units) equal to or more than 7. Compounds belonging to activity category “B” have a pEC50 value between 6 and 7.
Automated tetrazolium-based […] assays were used for determination of EC50 and CC50 of test compounds. Flat-bottom, 96-well plastic microtiter trays were filled with 180 μl of Eagle's Basal Medium, supplemented with 5% FCS (0% for FLU) and 20 mM Hepes buffer. Subsequently, stock solutions (7.8× final test concentration) of compounds were added in 45 μl volumes to a series of triplicate wells so as to allow simultaneous evaluation of their effects on virus- and mock-infected cells. Five five-fold dilutions were made directly in the microtiter trays using a robot system. Untreated virus controls, and HeLa cell controls were included in each test. Approximately 100 TCID50 of Respiratory Syncytial Virus was added to two of the three rows in a volume of 50 μl. The same volume of medium was added to the third row to measure the cytotoxicity of the compounds at the same concentrations as those used to measure the antiviral activity. After two hours of incubation, a suspension (4×10^5 cells/ml) of HeLa cells was added to all wells in a volume of 50 μl. The cultures were incubated at 37° C. in a 5% CO2 atmosphere. Seven days after infection the cytotoxicity and the antiviral activity was examined spectrophotometrically. To each well of the microtiter tray, 25 μl of a solution of MTT (3-(4,5-dimethylthiazol-2-yl)-2,5-diphenyltetrazolium bromide) was added. The trays were further incubated at 37° C. for 2 hours, after which the medium was removed from each cup. Solubilization of the formazan crystals was achieved by adding 100 μl 2-propanol. Complete dissolution of the formazan crystals were obtained after the trays have been placed on a plate shaker for 10 min. Finally, the absorbances were read in an eight-channel computer-controlled photometer (Multiskan MCC, Flow Laboratories) at two wavelengths (540 and 690 nm). The absorbance measured at 690 nm was automatically subtracted from the absorbance at 540 nm, so as to eliminate the effects of non-specific absorption.

Q: With `Cc1cccc(C(=O)Nc2ccc3c(c2)nc(NC2CCN(C)CC2)n3Cc2nc(C)ccc2O)c1` [Compound 78, N-[1-(3-hydroxy-6-methyl-pyridin-2-ylmethyl)-2-(1-methyl-piperidin-4-ylamino)-1H-benzoimidazol-5-yl]-3-methyl-benzamide] as the molecule, how does the EC50 read?
A: 126 nM

Q: `Cc1ccc(O)c(Cn2c(NC3CCN(C)CC3)nc3ccc(CNc4cc(Cl)cc(Cl)c4)cc32)n1` [Compound 2, 2-[6-[(3,5-dichloro-phenylamino)-methyl]-2-(1-methyl-piperidin-4-ylamino)-benzoimidazol-1-ylmethyl]-6-methyl-pyridin-3-ol] was tested. Which EC50 did it give?
A: 2 nM

Same assay, conditions: protection against RSV cytopathology in HeLa cells, 7 days after infection; pEC50 = −log of EC50 in molar units

Q: `Cc1ccc(O)c(Cn2c(NC3CCN(C)CC3)nc3ccc(CNc4c(C)cccc4C)cc32)n1` [Compound 75] was tested. Which Activity did it give?
A: 7

Q: Which Activity does the source give for `Cc1ccc(O)c(Cn2c(NC3CCN(C)CC3)nc3cc(NC(=O)c4ccccc4)ccc32)n1` [Compound 90] here?
A: 6.7

Q: With `Cc1ccc(O)c(Cn2c(NC3CCN(C)CC3)nc3cc(/C=C/C#N)ccc32)n1` [Compound 115] as the molecule, how does the Activity read?
A: 5.1

Q: Which Activity does the source give for `CCc1cc(C#N)ccc1NCc1ccc2nc(NC3CCN(C)CC3)n(Cc3nc(C)ccc3O)c2c1` [Compound 43] here?
A: 7.6

Q: For `Cc1cc(C)cc(NCc2ccc3nc(NC4CCN(Cc5ccccc5)CC4)n(Cc4nc(C)ccc4O)c3c2)c1` [Compound 164], which Activity is on record?
A: 7.2

Q: For `CC(=O)Nc1ccc(NCc2ccc3nc(NC4CCN(C)CC4)n(Cc4nc(C)ccc4O)c3c2)cc1` [Compound 53], which Activity is on record?
A: 7.4

Q: With `Cc1ccc(O)c(Cn2c(NC3CCN(C)CC3)nc3ccc(CN(C)c4ccccc4)cc32)n1` [Compound 51] as the molecule, how does the Activity read?
A: 7.4

Q: Which Activity does the source give for `Cc1cc(C)cc(NCc2ccc3nc(NC4CCN(CCO)CC4)n(Cc4nc(C)ccc4O)c3c2)c1` [Compound 149] here?
A: 8.8

Q: For `Cc1ccc(O)c(Cn2c(NC3CCN(C)CC3)nc3ccc(CN(C)CCc4ccccc4)cc32)n1` [Compound 105], which Activity is on record?
A: 6.2

Q: With `CCOC(=O)c1ccc(NCc2ccc3nc(NC4CCN(C)CC4)n(Cc4nc(C)ccc4O)c3c2)cc1` [Compound 54] as the molecule, how does the Activity read?
A: 7.4

Q: For `Cc1cc(C)cc(NCc2ccc3c(c2)nc(NCCc2ccccc2)n3Cc2nc(C)ccc2O)c1` [Compound 186], which Activity is on record?
A: <4

Q: For `Cc1ccc(O)c(Cn2c(NC3CCN(CCO)CC3)nc3ccc(CCC#N)cc32)n1` [Compound 161], which Activity is on record?
A: 7.8

Q: With `Cc1cc(C)cc(NCc2ccc3nc(NC4CCN(C)CC4)n(Cc4nc(C)ccc4O)c3c2)c1` [Compound 3] as the molecule, how does the Activity read?
A: 8.6

Q: `CCOC(=O)c1ccccc1NCc1ccc2nc(NC3CCN(C)CC3)n(Cc3nc(C)ccc3O)c2c1` [Compound 72] was tested. Which Activity did it give?
A: 7.1

Q: Which Activity does the source give for `CCOC(=O)c1ccc2c(c1)nc(NC1CCNCC1)n2Cc1nc(C)ccc1O` [Compound 139] here?
A: 5.1

Q: How did the Activity turn out when `COc1ccc(CCNc2nc3cc(CNc4cc(C)cc(C)c4)ccc3n2Cc2nc(C)ccc2O)cc1` [Compound 191] was run?
A: <4

Q: `Cc1ccc(O)c(Cn2c(NC3CCN(C)CC3)nc3ccc(CNCCc4ccccc4)cc32)n1` [Compound 110] was tested. Which Activity did it give?
A: 5.8

Q: Which Activity does the source give for `Cc1ccc(O)c(Cn2c(NC3CCN(C)CC3)nc3ccc(CNc4ccc(Br)cc4F)cc32)n1` [Compound 48] here?
A: 7.5

Q: How did the Activity turn out when `Cc1cc(C)c(NCc2ccc3nc(NC4CCN(C)CC4)n(Cc4nc(C)ccc4O)c3c2)c(Cl)c1` [Compound 88] was run?
A: 6.8

Q: `Cc1ccc(O)c(Cn2c(NC3CCN(C)CC3)nc3ccc(CNc4ccc(C)c(C)c4)cc32)n1` [Compound 41] was tested. Which Activity did it give?
A: 7.6

Q: How did the Activity turn out when `Cc1ccc(O)c(Cn2c(NC3CCN(C)CC3)nc3ccc(CN4CCOCC4)cc32)n1` [Compound 98] was run?
A: 6.5

Q: `Cc1ccc(O)c(Cn2c(NC3CCN(C)CC3)nc3ccc(CN4CCOC(CCO)C4)cc32)n1` (stereo not shown) [Compound 97] was tested. Which Activity did it give?
A: 6.6

Q: `Cc1ccc(O)c(Cn2c(NC3CCN(C)CC3)nc3ccc(CNc4ccccc4C(C)C)cc32)n1` [Compound 21] was tested. Which Activity did it give?
A: 7.9

Q: With `Cc1ccc(O)c(Cn2c(NCCCN3CCN(C)CC3)nc3ccc(CO)cc32)n1` [Compound 178] as the molecule, how does the Activity read?
A: 6.5

Q: Which Activity does the source give for `Cc1ccc(O)c(Cn2c(NC3CCN(C)CC3)nc3ccc(CNc4ccc(Nc5ccccc5)cc4)cc32)n1` [Compound 64] here?
A: 7.3

Q: `Cc1ccc(O)c(Cn2c(NC3CCN(C)CC3)nc3ccc(CNc4ccc(Cl)cc4Br)cc32)n1` [Compound 83] was tested. Which Activity did it give?
A: 6.9

Q: How did the Activity turn out when `Cc1cccc(NCc2ccc3nc(NC4CCN(CCCO)CC4)n(Cc4nc(C)ccc4O)c3c2)c1` [Compound 156] was run?
A: 8.4

Q: Which Activity does the source give for `Cc1cc(C)cc(NCc2ccc3c(c2)nc(NCCCN2CCCCC2)n3Cc2nc(C)ccc2O)c1` [Compound 176] here?
A: 7.2

Q: Which Activity does the source give for `Cc1ccc(O)c(Cn2c(NC3CCN(C)CC3)nc3ccc(Cn4ccnc4)cc32)n1` [Compound 79] here?
A: 6.9

Q: Which Activity does the source give for `Cc1ccc(O)c(Cn2c(NCCCN3CCCCC3)nc3cc(CO)ccc32)n1` [Compound 182] here?
A: 5

Q: `Cc1ccc(O)c(Cn2c(NC3CCN(C)CC3)nc3ccc(CNc4ccc(S(N)(=O)=O)cc4)cc32)n1` [Compound 10] was tested. Which Activity did it give?
A: 8.3

Q: How did the Activity turn out when `Cc1ccc(O)c(Cn2c(NC3CCN(C)CC3)nc3ccc(CNc4ccccc4CO)cc32)n1` [Compound 7] was run?
A: 8.4

Q: How did the Activity turn out when `Cc1ccc(O)c(Cn2c(NC3CCN(C)CC3)nc3ccc(CNc4ccc(Br)c5ccccc45)cc32)n1` [Compound 94] was run?
A: 6.6

Q: `CCOC(=O)c1ccc2c(c1)nc(NC1CCN(Cc3ccccc3)CC1)n2Cc1nc(C)ccc1O` [Compound 140] was tested. Which Activity did it give?
A: <4

Q: With `Cc1ccc(O)c(Cn2c(NC3CCN(C)CC3)nc3ccc(CN4CCc5cc(Br)ccc54)cc32)n1` [Compound 81] as the molecule, how does the Activity read?
A: 6.9

Q: With `Cc1ccc(O)c(Cn2c(NC3CCN(C)CC3)nc3ccc(CNc4ccccc4F)cc32)n1` [Compound 23] as the molecule, how does the Activity read?
A: 7.9

Q: Which Activity does the source give for `Cc1ccc(O)c(Cn2c(NC3CCN(C)CC3)nc3cc(/C=C/c4ccc(Cl)cc4)ccc32)n1` [Compound 127] here?
A: <4

Q: `Cc1ccc(O)c(Cn2c(NC3CCN(C)CC3)nc3ccc(NC(=O)Cc4ccccn4)cc32)n1` [Compound 108] was tested. Which Activity did it give?
A: 6

Q: `Cc1ccc(O)c(Cn2c(NC3CCN(C)CC3)nc3ccc(CN(CCO)c4ccccc4)cc32)n1` [Compound 4] was tested. Which Activity did it give?
A: 8.5

Q: How did the Activity turn out when `CCc1ccccc1NCc1ccc2nc(NC3CCN(C)CC3)n(Cc3nc(C)ccc3O)c2c1` [Compound 8] was run?
A: 8.4

Q: For `Cc1ccc(O)c(Cn2c(NC3CCN(CCC(N)=O)CC3)nc3ccc(CCc4ccccc4)cc32)n1` [Compound 163], which Activity is on record?
A: 7.2

Q: With `Cc1ccc(O)c(Cn2c(NC3CCN(C)CC3)nc3cc(/C=C/c4ccccc4)ccc32)n1` [Compound 100] as the molecule, how does the Activity read?
A: 6.4

Q: Which Activity does the source give for `Cc1ccc(O)c(Cn2c(NC3CCN(C)CC3)nc3ccc(CNc4cccc5cccnc45)cc32)n1` [Compound 31] here?
A: 7.8

Q: `Cc1ccc(O)c(Cn2c(NC3CCN(Cc4ccccc4)CC3)nc3ccc(CNc4cc(Cl)cc(Cl)c4)cc32)n1` [Compound 165] was tested. Which Activity did it give?
A: 7.1

Q: For `Cc1ccc(O)c(Cn2c(NCCc3ccccc3)nc3ccc(CNc4cc(Cl)cc(Cl)c4)cc32)n1` [Compound 192], which Activity is on record?
A: <4

Q: For `Cc1ccc(O)c(Cn2c(NC3CCN(CCO)CC3)nc3cc(CCc4ccccc4)ccc32)n1` [Compound 168], which Activity is on record?
A: 6.6

Q: For `Cc1ccc(O)c(Cn2c(NC3CCN(C)CC3)nc3ccc(CNc4c(C)cc(Br)cc4C)cc32)n1` [Compound 87], which Activity is on record?
A: 6.8

Q: With `CSc1cccc(NCc2ccc3nc(NC4CCN(C)CC4)n(Cc4nc(C)ccc4O)c3c2)c1` [Compound 25] as the molecule, how does the Activity read?
A: 7.9

Q: How did the Activity turn out when `CCCCN(CCO)Cc1ccc2nc(NC3CCN(C)CC3)n(Cc3nc(C)ccc3O)c2c1` [Compound 109] was run?
A: 6

Q: With `Cc1ccc(O)c(Cn2c(NC3CCN(CCO)CC3)nc3ccc(CNc4cccc(O)c4)cc32)n1` [Compound 159] as the molecule, how does the Activity read?
A: 7.9

Q: How did the Activity turn out when `Cc1ccc(O)c(Cn2c(NC3CCN(C)CC3)nc3ccc(CN(CCN(C)C)Cc4ccccc4)cc32)n1.Cl` [Compound 59] was run?
A: 7.3

Q: For `Cc1cccc(CCc2ccc3c(c2)nc(NC2CCN(CCN)CC2)n3Cc2nc(C)ccc2O)c1.Cl` [Compound 158], which Activity is on record?
A: 7.9

Q: `Cc1ccc(O)c(Cn2c(NC3CCN(C)CC3)nc3cc(C(=O)NCc4ccco4)ccc32)n1` [Compound 118] was tested. Which Activity did it give?
A: 4.9

Q: For `Cc1ccc(O)c(Cn2c(NCCc3ccccc3)nc3cc(CO)ccc32)n1` [Compound 185], which Activity is on record?
A: <4

Q: Which Activity does the source give for `Cc1cccc(SCc2ccc3c(c2)nc(NC2CCN(C)CC2)n3Cc2nc(C)ccc2O)c1` [Compound 132] here?
A: <4

Q: `Cc1ccc(O)c(Cn2c(NC3CCN(C)CC3)nc3ccc(CNc4cccc(C)c4C)cc32)n1` [Compound 20] was tested. Which Activity did it give?
A: 7.9
